Test results published in US7960376B2, “Benzo-fused heterocycles” (priority 2007, dated 2011).

What was measured:
Assay type in all cases: cell-based
[1] = biological target: T1, rat CB2 receptor (rCB2) (Rattus norvegicus, UniProt Q9QZN9); experiment: cell-based; conditions: intracellular cAMP, CHO-K1 cells, NKH-477 prestimulated; + agonist, − inverse agonist
T1 sequence (Q9QZN9 1-360): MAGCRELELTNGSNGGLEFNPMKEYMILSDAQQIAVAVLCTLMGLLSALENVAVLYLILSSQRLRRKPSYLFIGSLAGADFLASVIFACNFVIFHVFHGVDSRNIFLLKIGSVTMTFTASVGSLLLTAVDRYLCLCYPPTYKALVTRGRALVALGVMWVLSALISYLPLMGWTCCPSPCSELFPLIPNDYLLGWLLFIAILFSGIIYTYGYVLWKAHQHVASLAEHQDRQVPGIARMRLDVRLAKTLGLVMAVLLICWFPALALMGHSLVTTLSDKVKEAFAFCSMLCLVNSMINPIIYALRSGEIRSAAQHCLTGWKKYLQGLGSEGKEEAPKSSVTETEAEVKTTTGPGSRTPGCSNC

[2] = biological target: human CB1 receptor (hCB1) (Homo sapiens, UniProt P21554); experiment: cAMP assay (LANCE TR-FRET) in CHO-K1 cells expressing hCB1; conditions: intracellular cAMP, NKH-477 prestimulated, + agonist, − inverse agonist
[3] = biological target: human CB2 receptor (hCB2) (Homo sapiens, UniProt P34972); experiment: cell-based; conditions: intracellular cAMP, CHO-K1 cells, NKH-477 prestimulated; + agonist, − inverse agonist
Sequence of human CB2 receptor (hCB2) (P34972 whole entry): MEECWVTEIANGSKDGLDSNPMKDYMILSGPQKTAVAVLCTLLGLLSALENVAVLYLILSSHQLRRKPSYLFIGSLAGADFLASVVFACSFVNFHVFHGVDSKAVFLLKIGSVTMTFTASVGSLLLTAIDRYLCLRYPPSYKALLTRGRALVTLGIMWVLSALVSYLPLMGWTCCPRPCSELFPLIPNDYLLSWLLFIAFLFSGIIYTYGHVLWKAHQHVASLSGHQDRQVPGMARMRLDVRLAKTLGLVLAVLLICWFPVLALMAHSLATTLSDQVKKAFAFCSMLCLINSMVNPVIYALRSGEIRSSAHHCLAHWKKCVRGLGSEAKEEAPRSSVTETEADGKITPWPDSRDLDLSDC

Sequence of human CB1 receptor (hCB1) (P21554 whole entry): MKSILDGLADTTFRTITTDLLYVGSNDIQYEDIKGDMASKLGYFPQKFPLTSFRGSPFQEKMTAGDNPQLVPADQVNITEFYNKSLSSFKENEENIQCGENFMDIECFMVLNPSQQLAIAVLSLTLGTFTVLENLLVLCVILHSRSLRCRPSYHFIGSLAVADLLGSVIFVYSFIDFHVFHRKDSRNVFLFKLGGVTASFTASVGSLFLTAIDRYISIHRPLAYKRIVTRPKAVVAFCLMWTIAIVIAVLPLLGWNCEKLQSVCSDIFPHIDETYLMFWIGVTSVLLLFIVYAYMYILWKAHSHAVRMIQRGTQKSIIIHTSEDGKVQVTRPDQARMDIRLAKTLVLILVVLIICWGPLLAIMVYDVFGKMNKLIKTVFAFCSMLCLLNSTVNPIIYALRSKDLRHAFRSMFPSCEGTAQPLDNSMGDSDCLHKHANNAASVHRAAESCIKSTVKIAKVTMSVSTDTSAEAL

| Structure (SMILES) | rCB2 EC50 range [1] | hCB1 EC50 range [2] | hCB2 EC50 range [3] |
| --- | --- | --- | --- |
| CC1(C)CCN(S(=O)(=O)c2ccc(F)cc2)c2cc(C(=O)NCC3CCOCC3)ccc2S1 [Example 99, 5-(4-fluorophenyl-sulfonyl)-2,2-dimethyl-N-((tetrahydro-2H-pyran-4-yl)methyl)-2,3,4,5-tetrahydro-benzo[b][1,4]thiazepine-7-carboxamide] | −C | −E | – |
| CC1(C)CCN(S(=O)(=O)c2ccccc2)c2cc(C(=O)N3CCCCC3)ccc2S1 [Example 93, (2,2-dimethyl-5-(phenylsulfonyl)-2,3,4,5-tetrahydro-benzo[b][1,4]thiazepin-7-yl)(piperidin-1-yl)methanone] | +C | −E | – |
| CC(C)CNC(=O)c1ccc2c(c1)N(S(=O)(=O)c1ccccc1)CCC(C)(C)S2 [Example 92, N-isobutyl-2,2-dimethyl-5-(phenyl-sulfonyl)-2,3,4,5-tetrahydrobenzo[b][1,4] thiazepine-7-carboxamide] | −E | −E | – |
| CC(C)(C)NC(=O)c1ccc2c(c1)N(C(=O)c1ccc(F)cc1)CCS2 [Example 6, N-tert-butyl-4-(4-fluorobenzoyl)-3,4-dihydro-2H-benzo[b][1,4] thiazine-6-carboxamide] | −E | −E | – |
| COC(=O)[C@@H](NC(=O)c1ccc2c(c1)N(S(=O)(=O)c1ccccc1)CCC(C)(C)S2)C(C)(C)C [Example 95, (S)-methyl 2-(2,2-dimethyl-5-(phenyl-sulfonyl)-2,3,4,5-tetrahydrobenzo[b][1,4]thiazepine-7-carboxamido)-3,3-dimethylbutanoate] | – | −D | +D |
| CCC(=O)N1CCSc2ccc(C(=O)NC34CC5CC(CC(C5)C3)C4)cc21 [Example 39, N-(1-adamantyl)-4-propionyl-3,4-dihydro-2H-benzo[b][1,4]thiazine-6-carboxamide] | −E | −E | – |
| CC(C)(C)CNC(=O)c1ccc2c(c1)N(S(=O)(=O)c1ccccc1)CCC(C)(C)S2 [Example 96, 2,2-dimethyl-N-neo-pentyl-5-(phenyl-sulfonyl)-2,3,4,5-tetrahydrobenzo[b][1,4] thiazepine-7-carboxamide] | – | −D | +D |
| COc1ccc(C(=O)N2CCSc3ccc(C(=O)NC(C)(C)C)cc32)cc1 [Example 7, N-tert-butyl-4-(4-methoxybenzoyl)-3,4-dihydro-2H-benzo[b] [1,4]thiazine-6-carboxamide] | −E | −E | – |
| CC(C)CNC(=O)c1ccc2c(c1)N(C(=O)c1ccc(F)cc1)CCS2 [Example 3, 4-(4-fluorobenzoyl)-N-isobutyl-3,4-dihydro-2H-benzo[b][1,4] thiazine-6-carboxamide] | −E | −E | – |
| O=C(NC12CC3CC(CC(C3)C1)C2)c1ccc2c(c1)N(S(=O)(=O)c1ccc(F)cc1)CCS2 [Example 51, N-(1-adamantyl)-4-(4-fluorophenylsulfonyl)-3,4-dihydro-2H-benzo[b][1,4]thiazine-6-carboxamide] | −C | +D | – |
| O=C(NC1CCCC1)c1ccc2c(c1)N(C(=O)c1ccc(F)cc1)CCS2 [Example 12, N-cyclopentyl-4-(4-fluorobenzoyl)-3,4-dihydro-2H-benzo[b] [1,4]thiazine-6-carboxamide] | −D | −E | – |
| Cc1ccc(C(=O)N2CCSc3ccc(C(=O)NC(C)(C)C)cc32)cc1 [Example 8, N-tert-butyl-4-(4-methylbenzoyl)-3,4-dihydro-2H-benzo[b][1,4]thiazine-6-carboxamide] | – | −E | – |
| O=C(c1ccc2c(c1)N(S(=O)(=O)c1ccc(C(F)(F)F)cc1)CCS2)N1CCCC1 [Example 74, pyrrolidin-1-yl(4-(4-(trifluoromethyl)phenylsulfonyl)-3,4-dihydro-2H-benzo[b][1,4]thiazin-6-yl)methanone] | −C | – | +E |
| O=C(NNC(=O)c1ccc2c(c1)N(S(=O)(=O)c1ccc(C(F)(F)F)cc1)CCS2)c1ccccc1 [Example 79, N′-benzoyl-4-(4-(trifluoromethyl)phenylsulfonyl)-3,4-dihydro-2H-benzo[b][1,4]thiazine-6-carbohydrazide] | +D | – | +D |
| O=S(=O)(c1ccc(C(F)(F)F)cc1)N1CCSc2ccc(-c3ncc(-c4ccccc4)[nH]3)cc21 [Example 107, 6-(5-phenyl-1H-imidazol-2-yl)-4-(4-(trifluoromethyl)phenylsulfonyl)-3,4-dihydro-2H-benzo[b][1,4]thiazine] | +B | – | +C |
| CC(C)NC(=O)c1ccc2c(c1)N(C(=O)c1ccc(F)cc1)CCS2 [Example 27] | +D | – | +E |
| CC(C)(C)NC(=O)c1ccc2c(c1)N(S(C)(=O)=O)CCS2 [Example 53, N-tert-butyl-4-(methylsulfonyl)-3,4-dihydro-2H-benzo[b][1,4]thiazine-6-carboxamide] | +D | – | +E |
| Cc1nnc(-c2ccc3c(c2)N(S(=O)(=O)c2cn(C)cn2)CCS3)o1 [Example 106, 2-methyl-5-(4-(1-methyl-1H-imidazol-4-ylsulfonyl)-3,4-dihydro-2H-benzo[b][1,4]thiazin-6-yl)-1,3,4-oxadiazole] | +D | – | +E |
| CC(=O)N1CCSc2ccc(C(=O)NC3CCCC3)cc21 [Example 35, 4-acetyl-N-cyclopentyl-3,4-dihydro-2H-benzo[b][1,4]thiazine-6-carboxamide] | −E | – | +E |
| COCCCNC(=O)c1ccc2c(c1)N(S(=O)(=O)c1ccccc1)CCS2 [Example 48, N-(3-methoxypropyl)-4-(phenylsulfonyl)-3,4-dihydro-2H-benzo[b][1,4]thiazine-6-carboxamide] | +B | – | +D |
| CC1(C)CCN(S(=O)(=O)c2ccccc2)c2cc(C(=O)N3CCOCC3)ccc2S1 [Example 94, (2,2-dimethyl-5-(phenylsulfonyl)-2,3,4,5-tetrahydro-benzo[b][1,4]thiazepin-7-yl)(morpholino)-methanone] | +D | – | +E |
| COCCCNC(=O)c1ccc2c(c1)N(C(=O)c1ccc(C)cc1)CCS2 [Example 18, N-(3-methoxypropyl)-4-(4-methylbenzoyl)-3,4-dihydro-2H-benzo[b][1,4]thiazine-6-carboxamide] | −E | – | −E |
| CCN(CC)C(=O)c1ccc2c(c1)N(S(=O)(=O)c1ccc(F)cc1)CCS2 [Example 70, N,N-diethyl-4-(4-fluorophenylsulfonyl)-3,4-dihydro-2H-benzo[b][1,4]thiazine-6-carboxamide] | +C | – | +D |
| O=S(=O)(c1ccc(C(F)(F)F)cc1)N1CCSc2ccc(-c3nc(-c4ccccn4)no3)cc21 [Example 81, 3-(pyridin-2-yl)-5-(4-(4-(trifluoromethyl)phenylsulfonyl)-3,4-dihydro-2H-benzo[b][1,4]thiazin-6-yl)-1,2,4-oxadiazole] | +A | – | +B |
